Laboratory results: patent US20090221600A1, “PYRIDO-PYRIDIMIDINE DERIVATIVES USEFUL AS ANTIINFLAMMATORY AGENTS” (priority 2005, published 2009)

- melting point: 201.8 to 203.2 °C
Compound: Cc1ccccc1-c1cc2cnc(NC3CCN(Cc4ccccc4)CC3)nc2n(C2CCOCC2)c1=O [Compound No. 9, 2-[(1-Benzyl-piperidin-4-yl)amino]-6-(2-methyl-phenyl)-8-(tetrahydro-2H-pyran-4-yl)pyrido[2,3-d]pyrimidin-7(8H)-one]
